Here are results for 25 molecules from patent US8138168B1 (Takeda Pharmaceutical Company Limited, priority 2007, dated 2012).

This experiment addresses T1, Recombinant human renin (Homo sapiens, UniProt P00797).
T1 construct: isolate the active form (residues 67-406); made in house; host or cells: FreeStyle 293-F cells (transient expression of pcDNA3.1(+)/hREN)
T1 sequence (P00797 67-406): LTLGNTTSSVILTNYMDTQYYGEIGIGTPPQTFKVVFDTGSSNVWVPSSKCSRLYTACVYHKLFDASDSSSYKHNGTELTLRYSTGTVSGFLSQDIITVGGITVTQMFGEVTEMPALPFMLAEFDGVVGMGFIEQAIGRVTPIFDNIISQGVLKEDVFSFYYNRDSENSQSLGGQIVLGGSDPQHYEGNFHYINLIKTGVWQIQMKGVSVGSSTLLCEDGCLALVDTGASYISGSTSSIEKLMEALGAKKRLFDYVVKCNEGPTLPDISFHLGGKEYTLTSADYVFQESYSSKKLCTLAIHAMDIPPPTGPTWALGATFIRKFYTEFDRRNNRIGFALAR
The experiment can be described thus: In vitro enzymatic activity assay of renin inhibitors (fluorogenic peptide substrate). The class given is biochemical. Particulars: read-out: IC50 of Exemplified Compounds Against Renin. In outline: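 Recombinant human renin (3 nM final) pre-incubated 10 min at 37 °C with compounds in pH 7.4 Hepes/EDTA/DTT/0.1 mg/mL BSA/Brij35 buffer (optionally plus 2% BSA), 5% DMSO final; fluorogenic QXL520/HiLyteFluo488 peptide substrate added.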
What is called IC50 is the midpoint of a concentration-inhibition curve. With `COCCCn1c([C@@H]2CCCN(C(=O)C[C@H](N)Cc3ccc(-c4ccc5oc(=O)[nH]c5c4)cc3)C2)nc2c(F)cccc21` [Compound 460, 5-(4-((R)-2-amino-4-((R)-3-(4-fluoro-1-(3-methoxypropyl)-1H-benzo[d]imidazol-2-yl)piperidin-1-yl)-4-oxobutyl)phenyl)benzo[d]oxazol-2(3H)-one], the IC50 was < 100 nM. Consider `CC(=O)NCCn1c([C@@H]2CCCN(C(=O)C[C@H](N)Cc3ccc(-c4ccnc(O)c4)cc3)C2)nc2ccccc21` [Compound 461, N-(2-(2-((R)-1-((R)-3-amino-4-(4-(2-hydroxypyridin-4-yl)phenyl)butanoyl)piperidin-3-yl)-1H-benzo[d]imidazol-1-yl)ethyl)acetamide], for which the IC50 lay in the range of 100 to 1000 nM. The figure for `CC(=O)NCCn1c([C@@H]2CCCN(C(=O)C[C@H](N)Cc3ccc(-c4ccc(N5CCNC5=O)cc4)cc3)C2)nc2ccccc21` [Compound 462, N-(2-(2-((R)-1-((R)-3-amino-4-(4′-(2-oxoimidazolidin-l-yl)biphenyl-4-yl)butanoyl)piperidin-3-yl)-1H-benzo[d]imidazol-1-yl)ethyl)acetamide] is 100 to 1000 nM; for `COCCCn1c([C@@H]2CCCN(C(=O)C[C@H](N)Cc3ccc(-c4ccc5oc(N)nc5c4)cc3)C2)nc2c(F)cccc21` [Compound 463, (R)-3-amino-4-(4-(2-aminobenzo[d]oxazol-5-yl)phenyl)-1-((R)-3-(4-fluoro-1-(3-methoxypropyl)-1H-benzo[d]imidazol-2-yl)piperidin-1-yl)butan-1-one] it is < 100 nM; for `CC(=O)NCCn1c([C@@H]2CCCN(C(=O)C[C@H](N)Cc3ccc(-c4ccc5c(c4)SCC(=O)O5)cc3)C2)nc2ccccc21` [Compound 464, N-(2-(2-((R)-1-((R)-3-amino-4-(4-(2-oxo-2,3-dihydrobenzo[b][1,4]oxathiin-6-yl)phenyl)butanoyl)piperidin-3-yl)-1H-benzo[d]imidazol-1-yl)ethyl)acetamide] it is < 100 nM. The figure for `CC(=O)NCCn1c([C@@H]2CCCN(C(=O)C[C@H](N)Cc3ccc(-c4ccc5c(c4)CC(=O)N5)cc3)C2)nc2ccccc21` [Compound 465, N-(2-(2-((R)-1-((R)-3-amino-4-(4-(2-oxoindolin-5-yl)phenyl)butanoyl)piperidin-3-yl)-1H-benzo[d]imidazol-1-yl)ethyl)acetamide] is < 100 nM; for `CC(=O)NCCn1c([C@@H]2CCCN(C(=O)C[C@H](N)Cc3ccc(-c4ccc5c(c4)NC(=O)C5)cc3)C2)nc2ccccc21` [Compound 466, N-(2-(2-((R)-1-((R)-3-amino-4-(4-(2-oxoindolin-6-yl)phenyl)butanoyl)piperidin-3-yl)-1H-benzo[d]imidazol-1-yl)ethyl)acetamide] it is 100 to 1000 nM; for `CC(=O)NCCn1c([C@@H]2CCCN(C(=O)C[C@H](N)Cc3ccc(-c4ccc5oc(=O)[nH]c5c4)cc3)C2)nc2ccccc21` [Compound 467, N-(2-(2-((R)-1-((R)-3-amino-4-(4-(2-oxo-2,3-dihydrobenzo[d]oxazol-5-yl)phenyl)butanoyl)piperidin-3-yl)-1H-benzo[d]imidazol-1-yl)ethyl)acetamide] it is 100 to 1000 nM. For the molecule `CC(=O)NCCn1c([C@@H]2CCCN(C(=O)C[C@H](N)Cc3ccc(-c4ccc5c(c4)NC(=O)CO5)cc3)C2)nc2ccccc21` [Compound 469], the IC50 lay in the range of 100 to 1000 nM. With `CC(=O)NCCn1c([C@@H]2CCCN(C(=O)C[C@H](N)Cc3ccc(-c4cnc(N)nc4)cc3)C2)nc2c(Cl)cccc21` [Compound 470, N-(2-(2-((R)-1-((R)-3-amino-4-(4-(2-aminopyrimidin-5-yl)phenyl)butanoyl)piperidin-3-yl)-4-chloro-1H-benzo[d]imidazol-1-yl)ethyl)acetamide], the IC50 was 100 to 1000 nM. The figure for `CC(=O)NCCn1c([C@@H]2CCCN(C(=O)C[C@H](N)Cc3ccc(-c4ccc(N)nc4)cc3)C2)nc2c(C)cccc21` [Compound 471, N-(2-(2-((R)-1-((R)-3-amino-4-(4-(6-aminopyridin-3-yl)phenyl)butanoyl)piperidin-3-yl)-4-methyl-1H-benzo[d]imidazol-1-yl)ethyl)acetamide] is 100 to 1000 nM; for `CC(=O)NCCn1c([C@@H]2CCCN(C(=O)C[C@H](N)Cc3ccc(-c4cnc(N)nc4)cc3)C2)nc2c(C)cccc21` [Compound 472, N-(2-(2-((R)-1-((R)-3-amino-4-(4-(2-aminopyrimidin-5-yl)phenyl)butanoyl)piperidin-3-yl)-4-methyl-1H-benzo[d]imidazol-1-yl)ethyl)acetamide] it is 100 to 1000 nM. The figure for `CC(=O)NCCn1c([C@@H]2CCCN(C(=O)C[C@H](N)Cc3ccc(-c4ccc(O)nc4)cc3)C2)nc2c(C)cccc21` [Compound 473, N-(2-(2-((R)-1-((R)-3-amino-4-(4-(6-hydroxypyridin-3-yl)phenyl)butanoyl)piperidin-3-yl)-4-methyl-1H-benzo[d]imidazol-1-yl)ethyl)acetamide] is 100 to 1000 nM; for `CC(=O)NCCn1c([C@@H]2CCCN(C(=O)C[C@H](N)Cc3ccc(-c4ccc5c(c4)OC(F)(F)O5)cc3)C2)nc2c(C)cccc21` [Compound 474, N-(2-(2-((R)-1-((R)-3-amino-4-(4-(2,2-difluorobenzo[d][1,3]dioxol-5-yl)phenyl)butanoyl)piperidin-3-yl)-4-methyl-1H-benzo[d]imidazol-1-yl)ethyl)acetamide] it is 100 to 1000 nM. The figure for `CC(=O)NCCn1c([C@@H]2CCCN(C(=O)C[C@H](N)Cc3ccc(-c4ccc5c(c4)OCCN5C)cc3)C2)nc2c(C)cccc21` [Compound 475, N-(2-(2-((R)-1-((R)-3-amino-4-(4-(4-methyl-3,4-dihydro-2H-benzo[b][1,4]oxazin-7-yl)phenyl)butanoyl)piperidin-3-yl)-4-methyl-1H-benzo[d]imidazol-1-yl)ethyl)acetamide] is 100 to 1000 nM.

Turning to `CC(=O)NCCn1c([C@@H]2CCCN(C(=O)C[C@H](N)Cc3ccc(-c4ccc5c(c4)OCCO5)cc3)C2)nc2c(C)cccc21` [Compound 477, N-(2-(2-((R)-1-((R)-3-amino-4-(4-(2,3-dihydrobenzo[b][1,4]dioxin-6-yl)phenyl)butanoyl)piperidin-3-yl)-4-methyl-1H-benzo[d]imidazol-1-yl)ethyl)acetamide], the IC50 was in the range of 100 to 1000 nM. In the case of `CC(=O)NCCn1c([C@@H]2CCCN(C(=O)C[C@H](N)Cc3ccc(-c4ccc(O)nc4)cc3)C2)nc2c(Cl)cccc21` [Compound 478, N-(2-(2-((R)-1-((R)-3-amino-4-(4-(6-hydroxypyridin-3-yl)phenyl)butanoyl)piperidin-3-yl)-4-chloro-1H-benzo[d]imidazol-1-yl)ethyl)acetamide], the IC50 was in the range of 100 to 1000 nM.

As to `CC(=O)NCCn1c([C@@H]2CCCN(C(=O)C[C@H](N)Cc3ccc(-c4ccc(N)nc4)cc3)C2)nc2c(Cl)cccc21` [Compound 479, N-(2-(2-((R)-1-((R)-3-amino-4-(4-(6-aminopyridin-3-yl)phenyl)butanoyl)piperidin-3-yl)-4-chloro-1H-benzo[d]imidazol-1-yl)ethyl)acetamide], the IC50 is < 100 nM. The figure for `NC(=O)CCn1c([C@@H]2CCCN(C(=O)C[C@H](N)Cc3ccc(-c4ccc(N)nc4)cc3)C2)nc2ccccc21` [Compound 480, 3-(2-((R)-1-((R)-3-amino-4-(4-(6-aminopyridin-3-yl)phenyl)butanoyl)piperidin-3-yl)-1H-benzo[d]imidazol-1-yl)propanamide] is 100 to 1000 nM; for `NC(=O)CCn1c([C@@H]2CCCN(C(=O)C[C@H](N)Cc3ccc(-c4cnc(N)nc4)cc3)C2)nc2ccccc21` [Compound 481, 3-(2-((R)-1-((R)-3-amino-4-(4-(2-aminopyrimidin-5-yl)phenyl)butanoyl)piperidin-3-yl)-1H-benzo[d]imidazol-1-yl)propanamide] it is 100 to 1000 nM.

`NC(=O)CCn1c([C@@H]2CCCN(C(=O)C[C@H](N)Cc3ccc(-c4ccc5c(c4)OC(F)(F)O5)cc3)C2)nc2ccccc21` [Compound 483, 3-(2-((R)-1-((R)-3-amino-4-(4-(2,2-difluorobenzo[d][1,3]dioxol-5-yl)phenyl)butanoyl)piperidin-3-yl)-1H-benzo[d]imidazol-1-yl)propanamide]: the IC50 is 100 to 1000 nM. For `NC(=O)CCn1c([C@@H]2CCCN(C(=O)C[C@H](N)Cc3ccc(-c4ccc5c(c4)OCCO5)cc3)C2)nc2ccccc21` [Compound 484, 3-(2-((R)-1-((R)-3-amino-4-(4-(2,3-dihydrobenzo[b][1,4]dioxin-6-yl)phenyl)butanoyl)piperidin-3-yl)-1H-benzo[d]imidazol-1-yl)propanamide] the value was > 1000 nM; for `NC(=O)CCn1c([C@@H]2CCCN(C(=O)C[C@H](N)Cc3ccc(-c4ccccc4)cc3)C2)nc2ccccc21` [Compound 485, 3-(2-((R)-1-((R)-3-amino-4-(biphenyl-4-yl)butanoyl)piperidin-3-yl)-1H-benzo[d]imidazol-1-yl)propanamide], > 1000 nM; for `CC(=O)Nc1ccc(-c2ccc(C[C@@H](N)CC(=O)N3CCC[C@@H](c4nc5ccccc5n4CCC(N)=O)C3)cc2)cc1` [Compound 486, 3-(2-((R)-1-((R)-4-(4′-acetamidobiphenyl-4-yl)-3-aminobutanoyl)piperidin-3-yl)-1H-benzo[d]imidazol-1-yl)propanamide], 100 to 1000 nM. Take `COc1ccc(-c2ccc(C[C@@H](N)CC(=O)N3CCC[C@@H](c4nc5ccccc5n4CCC(N)=O)C3)cc2)cc1` [Compound 487, 3-(2-((R)-1-((R)-3-amino-4-(4′-methoxybiphenyl-4-yl)butanoyl)piperidin-3-yl)-1H-benzo[d]imidazol-1-yl)propanamide]: the IC50 lay in the range of 100 to 1000 nM.
